The numbers were not newly measured in patent US8278324B2, “Oxadiazole derivatives active on sphingosine-1-phosphate (S1P)” (Glaxo Group Limited, priority 2007, dated 2012), which cites them from elsewhere.

The subject of one data set is circulating lymphocytes. The settings on record: animals and man.
The conditions of data set [1]: clinical studies, first 24 hours of treatment.

As for `CCCCCCCCc1ccc(CCC(N)(CO)CO)cc1` [FTY720], in the data set on circulating lymphocytes, the “effect on circulating lymphocytes” value is on record as “reduce circulating lymphocytes”. Further, the bradycardia entry in data set [1] is reported as “results in bradycardia”.
